Experimental data published in patent publication US11007274B2, “Compounds for medicinal applications” (Ausvir Therapeutics Pty LTD, priority 2015, dated 2021).
Like-named read-outs stand apart in the source and are kept apart here. Marks after values point to notes of the source that are not given here.

Assays:
influenza virus = type: cell-based
[1] = system: Oseltamivir resistant strains; assay: microbe, parasite or virus in culture; type: cell-based, influenza virus

## CC(=O)N[C@H]1[C@H]([C@H](OC(=O)NCCCCCCCCCNC(=O)c2cc(C(=O)NCCCCCCCCCNC(=O)O[C@@H]([C@@H]3OC(C(=O)O)=C[C@H](NC(=N)N)[C@H]3NC(C)=O)[C@H](O)CO)c(C(=O)N[C@H](CC(=O)NCS(=O)(=O)O)C(=O)NCS(=O)(=O)O)cc2C(=O)N[C@H](CC(=O)NCS(=O)(=O)O)C(=O)NCS(=O)(=O)O)[C@H](O)CO)OC(C(=O)O)=C[C@@H]1NC(=N)N [MD185, PK2PYR(Zn)2[(D-Asp)(NHCH2SO3)2]2]
Influenza virus
  EC50: 0.18/0.097 ng/ml
Influenza virus; read-out: EC50
  EC50: 0.097 nM
[1]; Influenza A virus, H3N2, read-out: IC50, inhibition of plaque number
  IC50: 1 ng/mL
[1]; pH 1
  IC50, inhibition of plaque number: 1-100^b ng/ml
[1]; unidentified influenza virus, pH 1, read-out: IC50, inhibition of plaque number
  IC50: 1 to 10 ng/mL
[1]; unidentified influenza virus, read-out: IC50, inhibition of plaque number
  IC50: 1 to 10 ng/mL

## CCOC(=O)C1=C[C@@H](OC(CC)CC)[C@H](NC(C)=O)[C@@H](N)C1 [Oseltamivir, reference compound]
[1]; Influenza A virus, H3N2; read-out: IC50, inhibition of plaque number
  IC50: ≥ 1000 nM
[1]; pH 1; read-out: IC50, inhibition of plaque number
  IC50: ≥ 10000 nM
[1]; read-out: IC50, inhibition of plaque number
  IC50: ≥ 10000 nM
[1]; unidentified influenza virus, pH 1; read-out: IC50, inhibition of plaque number
  IC50: 100 nM
[1]; unidentified influenza virus; read-out: IC50, inhibition of plaque number
  IC50: 1000 nM
